Results reported in patent publication US5607926A, “Cephalosporin antibiotics” (Microcide Pharmaceuticals, Inc., priority 1995, dated 1997).
≈ marks a conversion by molar mass, not a printed value. Where two headings read alike, the source gives them in different places.

Assays:
Assay type in all cases: cell-based
S. aureus ATCC 25923 = test: In vitro antibacterial evaluation, MIC by agar dilution, S. aureus ATCC 25923
Procedure, shortened: (§1)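 Log-phase cultures (4-6 h broth growth) are adjusted to 0.5 McFarland and diluted to give roughly 10^4 cfu per 1 μL spot. Spots go onto Mueller-Hinton agar containing test compound in two-fold dilutions (128 to ≤0.25 μg/mL), then plates incubate 16-20 hours at 35°-36° C before MIC reading.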

S. aureus ATCC 29213 = test: In vitro antibacterial evaluation, MIC by agar dilution, S. aureus ATCC 29213; conditions: Staphylococcus aureus, ATCC29213
Procedure, shortened: as §1

S. haemolyticus (Meth^R) = test: In vitro antibacterial evaluation, MIC by agar dilution, S. haemolyticus
Procedure, shortened: as §1

[1] = test system: S. aureus 76 (Meth^R)(lac^+); test: In vitro antibacterial evaluation, MIC by agar dilution, S. aureus 76
Procedure, shortened: as §1

P. aeruginosa ATCC 27853 = test: In vitro antibacterial evaluation, MIC by agar dilution, P. aeruginosa ATCC 27853
Procedure, shortened: as §1

[2] = test system: S. epidermidis ATCC 31432; test: In vitro antibacterial evaluation, MIC by agar dilution, S. epidermidis ATCC 31432
Procedure, shortened: as §1

[3] = test system: S. aureus Col (Meth^R)(lac^-); test: In vitro antibacterial evaluation, MIC by agar dilution, S. aureus Col
Protocol: (§2) The compounds of the invention were evaluated against several β-lactamresistant bacteria strains by determining the minimum inhibitory concentration (MIC, μg/ml) of each compound with respect to each strain. The MIC, the lowest concentration of antibiotic which inhibits growth of the test organism, was determined by the agar dilution method.
(§3) To determine the MIC for bacterial isolates, the test compound was incorporated in a series of two-fold dilutions into liquified Mueller-Hinton agar. Upon solidification, a number of different bacterial strains were spot inoculated with a replicating device onto the agar surface. […] The procedures used in these studies have been standardized by the National Committee for Clinical Laboratory Standards (NCCLS), as per the NCCLS publication entitled METHODS FOR DILUTION ANTIMICROBIAL SUSCEPTIBILITY TESTS (1991), which is incorporated herein by reference.
(§4) Aliquots of antimicrobial agents were prepared in phosphate buffered saline (PBS) at pH 7.2. Tween 20 or DMSO was used as a solubilizing vehicle as needed. Standard methods of vortexing, sonicating and gentle heat were used to facilitate solubilizing the test agent. Typically, the concentration of the stock solution was 10× that of the highest drug concentration tested. A 1.28 mg/mL stock solution was used with a subsequent highest working concentration of 128 μg/mL. Serial two-fold dilutions were done through ≤0.25 μg/mL. Each drug level was tested in duplicate. Two-fold drug dilutions were done in sterile 50 mL tubes with a final drug volume of 5 mL. Upon the addition of 45 mL of molten agar, a 10-fold dilution resulted. Two, 25 mL. plates were then poured into 15×150 mm square Petri plates with grids and allowed to harden.
(§5) A control plate with a reference drug, either cefotaxime, vancomycin or imipenem, was used as the positive growth control. Stock concentrations of reference antibiotics were prepared and frozen at -80° C. Upon preparation, the control plates were sealed and stored in the refrigerator for up to 1 week prior to use; however, imipenem control plates had to be prepared just prior to use. All test plates were used within 24 hours of preparation.
(§6) Satisfactory results were obtained where the inoculum contained about 10^4 colony forming units (cfu) ±0.5 logs. Starting with pure cultures of the test isolates on agar plates, a few isolated colonies were transferred to a tube of nutrient broth and allowed to grow 4-6 hours at 35°-36° C. to reach log-phase growth. Dropwise addition of the broth culture to PBS was done to match a 0.5 McFarland turbidity standard equal to 10^8 cfu/mL. This was further diluted ten-fold in PBS to reach a working inoculum concentration of 10^7 cfu/mL. When 1 μL of the working inoculum was applied to the agar surface a concentration of about 10^4 cfu per spot was obtained.
(§7) Disposable sterile 1 μL loops were used to inoculate test plates, with each isolate in a designated grid on the agar plate. An alternate method of inoculation involved the use of a replica plater, a device with 48 steel pins allowing the simultaneous inoculation of multiple isolates. After the spots had dried, the plates were incubated at 35°-36° C. for 16-20 hours. Endpoints were assessed as the minimum inhibitory concentration (MIC) of antimicrobial agent.
The novel agents of this invention are notable for their enhanced activity against S. aureus Col and Enterococci (E. faecium and E. faecalis). […]

E. faecalis ATCC 29212 = test: In vitro antibacterial evaluation, MIC by agar dilution, E. faecalis ATCC 29212; conditions: E. faecalis ATCC 29212
Procedure, shortened: as §1

[4] = test system: S. aureus Col8A (Meth^S)(lac^-); test: In vitro antibacterial evaluation, MIC by agar dilution, S. aureus Col8A
Procedure, shortened: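 Log-phase isolates were spot-inoculated at about 10^4 cfu onto Mueller-Hinton agar carrying duplicate two-fold compound levels, 128 μg/mL to ≤0.25 μg/mL, following NCCLS (1991). Plates were read after 16-20 h at 35°-36° C. The lowest growth-inhibiting concentration gave the MIC (μg/ml).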

[5] = test system: X. maltophilia ATCC 13637; test: In vitro antibacterial evaluation, MIC by agar dilution, X. maltophilia ATCC 13637; conditions: Stenotrophomonas maltophilia, ATCC13637
Protocol: as §2, §3, §4, §5, §6, §7

E. faecium ATCC 35667 = test: In vitro antibacterial evaluation, MIC by agar dilution, E. faecium ATCC 35667
Procedure, shortened: as §1

E. coli ATCC 25922 = test: In vitro antibacterial evaluation, MIC by agar dilution, E. coli ATCC 25922
Procedure, shortened: as §1

[6] = Staphylococcus aureus, ATCC25923, S. aureus ATCC 25923, read-out: MIC
[7] = Staphylococcus haemolyticus, read-out: MIC
[8] = Staphylococcus aureus, read-out: MIC
[9] = Pseudomonas aeruginosa, ATCC27853, read-out: MIC
[10] = Staphylococcus epidermidis, ATCC31432, S. epidermidis ATCC 31432, read-out: MIC
[11] = Enterococcus faecalis, ATCC29212, read-out: MIC
[12] = Enterococcus faecium, ATCC35667, read-out: MIC
[13] = Escherichia coli, ATCC25922, read-out: MIC
[14] = S. aureus ATCC 29213, read-out: MIC

In the case of O=C(Cc1ccccc1)N[C@@H]1C(=O)N2C(C(=O)O)=C(Sc3ccccc3-c3ccccc3)CS[C@H]12 [Cmpd 9, (7R)-7-((Phenylacetyl)amino]-3-(2-biphenylthio)-3-cephem-4-carboxylic acid], the MIC (S. aureus ATCC 25923; [6]) is reported as 0.125 µg/mL (≈ 0.249 µM), the MIC (S. aureus ATCC 29213) is reported as 0.25 µg/mL (≈ 0.497 µM) and the MIC (S. haemolyticus (Meth^R); [7]) is reported as 0.125 µg/mL (≈ 0.249 µM). The MIC [1, 8] was 8 µg/mL (≈ 15.9 µM), the MIC (P. aeruginosa ATCC 27853; [9]) was > 32 µg/mL and the MIC [2, 10] was 0.125 µg/mL (≈ 0.249 µM). The “activity against S. aureus Col, S. aureus Col 8A and Enterococci” value ([3]; S. aureus Col, S. aureus Col 8A, Enterococci) was “broad activity against both S. aureus Col and S. aureus Col 8A, as well as Enterococci”, the MIC (E. faecalis ATCC 29212; [11]) was 4 µg/mL (≈ 7.96 µM) and the MIC ([4]; Staphylococcus aureus) was 0.25 µg/mL (≈ 0.497 µM). For the same molecule, the MIC [5] was > 32 µg/mL, the MIC (E. faecium ATCC 35667; [12]) was 2 µg/mL (≈ 3.98 µM) and the MIC (E. coli ATCC 25922; [13]) was > 32 µg/mL.

In the case of N=C(N)SCc1ccc(SC2=C(C(=O)O)N3C(=O)[C@@H](NC(=O)Cc4ccccc4)[C@H]3SC2)c(I)c1 [Cmpd 58, (7R)-7-[(Phenylacetyl)amino]-3-(4-isothiouroniummethyl-2-iodophenylthio)-3-cephem-4-carboxylic acid], the MIC (S. aureus ATCC 25923; Staphylococcus aureus, ATCC25923) is reported as < 0.25 µg/mL, the MIC (S. haemolyticus (Meth^R); [7]) is reported as 4 µg/mL (≈ 6.24 µM) and the MIC [1, 8] is reported as 4 µg/mL (≈ 6.24 µM). The MIC (P. aeruginosa ATCC 27853; [9]) was > 32 µg/mL, the MIC ([2]; Staphylococcus epidermidis, ATCC31432) was < 0.25 µg/mL and the MIC ([3]; Staphylococcus aureus) was < 0.25 µg/mL. The MIC (E. faecalis ATCC 29212; [11]) was 1 µg/mL (≈ 1.56 µM), the MIC ([4]; Staphylococcus aureus) was < 0.25 µg/mL and the MIC (E. faecium ATCC 35667; [12]) was 0.5 µg/mL (≈ 0.781 µM). The MIC (E. coli ATCC 25922; [13]) was 32 µg/mL (≈ 50 µM).

In the case of “(7R)-7-[(Phenylacetyl)amino]-3-(2,3-dihydro-2,2-dimethylbenzofuran-7-yl)-3-cephem-4-carboxylic acid [Cmpd 55]”, the MIC (S. aureus ATCC 25923; S. aureus ATCC 25923) is reported as < 0.25 µg/mL, the MIC (S. haemolyticus (Meth^R)) is reported as 16 µg/mL and the MIC [1] is reported as 16 µg/mL. The MIC (P. aeruginosa ATCC 27853) was > 32 µg/mL, the MIC ([2]; S. epidermidis ATCC 31432) was < 0.25 µg/mL and the MIC ([3]; S. aureus Col (Meth^R)(lac^-), high-level PBP2a producer) was 4 µg/mL. For the same molecule, the MIC (E. faecalis ATCC 29212) was 16 µg/mL, the MIC ([4]; S. aureus Col8A (Meth^S)(lac^-), lacks PBP2a) was < 0.25 µg/mL and the MIC (E. faecium ATCC 35667) was 8 µg/mL. For the same molecule, the MIC (E. coli ATCC 25922) was > 32 µg/mL.

With O=C(Cc1ccccc1)N[C@@H]1C(=O)N2C(C(=O)O)=C(Sc3cccc(I)c3)CS[C@H]12 [Cmpd 2, (7R)-7-[(Phenylacetyl)amino]-3-(m-iodophenylthio)-3-cephem-4-carboxylic acid] the MIC (S. aureus ATCC 25923; [6]) was < 0.015 µg/mL, the MIC (S. aureus ATCC 29213; [14]) was 0.03 µg/mL (≈ 0.0543 µM) and the MIC (S. haemolyticus (Meth^R); [7]) was 16 µg/mL (≈ 29 µM). The MIC [1, 8] was 16 µg/mL (≈ 29 µM), the MIC (P. aeruginosa ATCC 27853; [9]) was > 32 µg/mL and the MIC [2, 10] was < 0.015 µg/mL. The MIC (E. faecalis ATCC 29212; [11]) was 2 µg/mL (≈ 3.62 µM), the MIC ([4]; Staphylococcus aureus) was 0.03 µg/mL (≈ 0.0543 µM) and the MIC [5] was > 32 µg/mL. For the same molecule, the MIC (E. faecium ATCC 35667; [12]) was 2 µg/mL (≈ 3.62 µM) and the MIC (E. coli ATCC 25922; [13]) was > 32 µg/mL.

For O=C(Cc1ccccc1)N[C@@H]1C(=O)N2C(C(=O)O)=C(Sc3ccc(-c4ccccc4)cc3Br)CS[C@H]12 [Cmpd 11, (7R)-7-[(Phenylacetyl)amino]-3-(2-bromo-4-biphenylthio)-3-cephem-4-carboxylic acid], the MIC (S. aureus ATCC 25923; [6]) was < 0.015 µg/mL, the MIC (S. aureus ATCC 29213; [14]) was 0.125 µg/mL (≈ 0.215 µM) and the MIC (S. haemolyticus (Meth^R); [7]) was 4 to 8 µg/mL (≈ 6.88 to 13.8 µM). The MIC [1, 8] was 4 µg/mL (≈ 6.88 µM), the MIC (P. aeruginosa ATCC 27853; [9]) was > 32 µg/mL and the MIC [2, 10] was 0.03 µg/mL (≈ 0.0516 µM). For the same molecule, the MIC (E. faecalis ATCC 29212; [11]) was 2 µg/mL (≈ 3.44 µM), the MIC ([4]; Staphylococcus aureus) was 0.06 µg/mL (≈ 0.103 µM) and the MIC [5] was > 32 µg/mL. The MIC (E. faecium ATCC 35667; [12]) was 4 µg/mL (≈ 6.88 µM) and the MIC (E. coli ATCC 25922; [13]) was > 32 µg/mL.
